In brackets after ≈: the same amount, converted by molar mass.
How the values were obtained:
Solubility in xylene = assay type: physicochemical; settings: organic solvent or mixture, o-xylene, 20° C., dark, liquid chromatography
Procedure: To illustrate the improved solubility in a common formulation solvent, xylene, of the compounds according to the invention, solubility tests were carried out with certain of these compounds and closely related compounds known from the literature. The test method is described below.
The compound (200 mg) was equilibrated with solvent (0.5 ml of o-xylene at 20° C. in the dark for 48 hours). After equilibration, the supernatant liquors were removed, centrifuged and then filtered. An aliquot portion of this (0.1 ml) was made up to volume (1 to 100 ml) with acetonitrile and then analyzed against standards by means of liquid chromatography.

[1] = tested on: eggs of Spodoptera littoralis; assay: Ovicidal activity, sprayed eggs (Test 1 (c)), toxicity vs parathion; assay type: in vivo, Egyptian cotton leafworm (Spodoptera littoralis); settings: eggs less than 24 hours old; approximately five days; 50% mortality basis; standard parathion = 100
Procedure: (§1) The insecticidal and ovicidal activities of the compounds of the invention were assessed employing the pests, Egyptian cotton leafworm (Spodoptera littoralis, S.l.), mosquito (Aedes aegypti, A.a.) and eggs of Spodoptera littoralis, S.l.ov.
(§2) The test methods used for each species are described below. In each case the tests were conducted under normal insectary conditions (28° C.[…]; fluctuating light and humidity).
(§3) In each instance, the toxicity of the compound of the invention was compared to that of a standard pesticide (parathion), its relative toxicity then being expressed in terms of the relationship between the amount of compound of the invention and the amount of the standard pesticide required to produce the same percentage (50%) of mortality in the test insect. By assigning the standard pesticide an arbitrary rating of 100, the toxicities of the compounds of the invention were expressed in terms of the toxicity indices, which compares the toxicity of the compounds of the invention with that of the standard pesticide. That is to say, a test compound having a Toxicity Index of 50 would be half as active, while one having a Toxicity Index of 200 would be twice as active as the standard pesticide.
(c) Spodoptera littoralis (ovicide)--Solutions as described in (a) above were prepared. Eggs less than 24 hours old were obtained as follows. Adult Spodoptera littoralis were held in large plastic cylinders containing blotting paper on which the moths laid their batches of eggs. Egg batches containing approximately 60-70 eggs were cut from the blotting paper with a 1 cm surround. These were placed, eggs uppermost, on filter paper in the deeper half of 5 cm disposable petri dishes and each batch of eggs was then sprayed with a different test solution or the control solution. The dishes were covered until the control eggs had hatched, approximately five days. The percentage ovicidal mortality was then calculated.

[2] = tested on: Spodoptera littoralis larvae; assay: Insecticidal activity, sprayed diet (Test 1 (a)), toxicity vs parathion; assay type: in vivo, Egyptian cotton leafworm (Spodoptera littoralis); settings: second instar larvae; mortality 7 days after spraying; 50% mortality basis; standard parathion = 100
Procedure: as §1, §2
as §3, with “pesticide.” for “pesticide. That is to say, a test compound having a Toxicity Index of 50 would be half as active, while one having a Toxicity Index of 200 would be twice as active as the standard pesticide.”
(a) Spodoptera littoralis--A solution or suspension of the test compound was made up over a range of concentrations in 10% acetone/water containing 0.025% Triton X100 (as surfactant). These solutions were sprayed using a logarithmic spraying machine onto petri dishes containing a nutritious diet on which the Spodoptera littoralis larvae had been reared. When the spray deposit had dried each dish was infested with 10 second instar larvae. Mortality assessments were made 7 days after spraying.

Aedes aegypti larvae = assay: Insecticidal activity, larvae in treated water (Test 1 (b)), toxicity vs parathion; assay type: in vivo, mosquito (Aedes aegypti); design: key: Toxicity Index: parathion = 100; 200 = twice as active, 50 = half; settings: early fourth instar larvae; final mortality when all larvae emerged as adults or died; 50% mortality basis; standard parathion = 100
Procedure: as §1, §2, §3
(b) Aedes aegypti--Several solutions of the test compound of varying concentration were prepared in acetone. 100 microliter quantities were added to 100 milliliters of tap water, the acetone being allowed to evaporate off. Ten early fourth instar larvae were placed in the test solution; after 48 hours the (surviving) larvae were fed with animal feed pellets, and the final percentage mortality assessed when all the larvae had either pupated and emerged as adults or died.

| solubility at 48 h (Solubility in xylene) | SMILES | Toxicity Index S.l.ov. [1] | Toxicity Index S.l. [2] | Toxicity Index A.a. (Aedes aegypti larvae) |
| --- | --- | --- | --- | --- |
| 5700 µg/mL (≈ 12.1 mM) | O=C(NC(=O)c1c(F)cccc1F)Nc1ccc(Oc2ccc(C(F)(F)F)cc2Cl)cc1 [1-(4-(4-trifluoromethyl-2-chlorophenoxy)phenyl)-3-(2,6-difluorobenzoyl)urea, reference compound] | – | – | – |
| – | O=C(NC(=O)N(Sc1ccc([N+](=O)[O-])cc1)c1ccc(OC(F)(F)F)cc1)c1ccccc1Cl [Example 24] | 11 | 54 | 31 |
| – | CC(C)(C)c1ccc(SN(C(=O)NC(=O)c2c(F)cccc2F)c2ccc(Cl)cc2)cc1 [Example 36] | 0 | 42 | 22 |
| – | Cc1ccc(SN(C(=O)NC(=O)c2c(F)cccc2F)c2ccc(Cl)cc2)cc1 [Example 11] | 680 | 23 | 25 |
| – | Cc1ccc(SN(C(=O)NC(=O)c2ccccc2Cl)c2ccc(OC(F)(F)F)cc2)cc1 [Example 23] | 1500 | 140 | 145 |
| – | O=C(NC(=O)N(Sc1ccc(Br)cc1)c1ccc(Cl)cc1)c1c(F)cccc1F [Example 37] | 850 | 51 | 26 |
| 3700 µg/mL (≈ 7.23 mM) | O=C(NC(=O)N(Sc1ccccc1[N+](=O)[O-])c1ccc(OC(F)(F)F)cc1)c1ccccc1Cl [Example 1, 2-Chloro-N-[[[4-(trifluoromethoxy)phenyl]-N-[(2-nitrophenyl)thio]amino]carbonyl]benzamide] | 210 | 750 | 220 |
| – | O=C(NC(=O)N(Sc1ccccc1[N+](=O)[O-])c1ccc(C(F)(F)F)cc1)c1c(F)cccc1F [Example 20] | 1800 | 160 | 180 |
| 18800 µg/mL (≈ 30.1 mM) | O=C(NC(=O)N(Sc1ccccc1[N+](=O)[O-])c1ccc(Oc2ccc(C(F)(F)F)cc2Cl)cc1)c1c(F)cccc1F [Example 3] | 0 | 4500 | – |
| – | CC(C)(C)c1ccc(SN(C(=O)NC(=O)c2c(F)cccc2F)c2ccc(C(F)(F)F)cc2)cc1 [Example 26] | 8 | 580 | 82 |
| – | O=C(NC(=O)N(SC(Cl)(Cl)Cl)c1ccc(C(F)(F)F)cc1)c1c(F)cccc1F [Example 6, 2,6-Difluoro-N-[[[(trichloromethyl)thio]-N-[4-(trifluoromethyl)phenyl]amino]carbonyl]benzamide] | 400 | 260 | 34 |
| – | O=C(NC(=O)N(Sc1ccc(Cl)cc1)c1ccc(C(F)(F)F)cc1)c1c(F)cccc1F [Example 27] | 2200 | 220 | 21 |
| – | O=C(NC(=O)N(Sc1ccccc1)c1ccc(Cl)cc1)c1c(F)cccc1F [Example 8] | 480 | 16 | 22 |
| – | O=C(NC(=O)N(Sc1ccc([N+](=O)[O-])cc1[N+](=O)[O-])c1ccc(OC(F)(F)F)cc1)c1ccccc1Cl [Example 2, 2-Chloro-N-[[[4-(trifluoromethoxy)phenyl]-N-[(2,4-dinitrophenyl)thio]amino]carbonyl]benzamide] | 3300 | 150 | 82 |
| – | O=C(NC(=O)N(Sc1ccc([N+](=O)[O-])cc1[N+](=O)[O-])c1ccc(C(F)(F)F)cc1)c1c(F)cccc1F [Example 22] | 2300 | 220 | 51 |
| – | Cc1ccc(SN(C(=O)NC(=O)c2ccccc2Cl)c2ccc(Oc3ccc(C(F)(F)F)cc3Cl)cc2)cc1 [Example 34] | 0 | 1200 | 130 |
| – | O=C(NC(=O)N(Sc1ccc([N+](=O)[O-])cc1)c1ccc(Cl)cc1)c1c(F)cccc1F [Example 28] | 720 | 54 | 6 |
| – | O=C(NC(=O)N(Sc1ccc(Cl)cc1)c1ccc(Oc2ccc(C(F)(F)F)cc2Cl)cc1)c1ccccc1Cl [Example 30] | 0 | 670 | 220 |
| – | Cc1ccc(SN(C(=O)NC(=O)c2c(F)cccc2F)c2ccc(C(F)(F)F)cc2)cc1 [Example 18] | 2300 | 300 | 170 |
| – | O=C(NC(=O)N(Sc1ccc([N+](=O)[O-])cc1[N+](=O)[O-])c1ccc(Cl)cc1)c1c(F)cccc1F [Example 13] | 1800 | 35 | 100 |
| – | Cc1cccc(SN(C(=O)NC(=O)c2c(F)cccc2F)c2ccc(C(F)(F)F)cc2)c1 [Example 17] | 2800 | 260 | 160 |

| SMILES | solubility at 48 h (Solubility in xylene) | Toxicity Index S.l.ov. [1] | Toxicity Index S.l. [2] | Toxicity Index A.a. (Aedes aegypti larvae) |
| --- | --- | --- | --- | --- |
| O=C(NC(=O)c1ccccc1Cl)Nc1ccc(OC(F)(F)F)cc1 [1-(4-trifluoromethoxy-phenyl)-3-(2-chloro-benzoyl)-urea, reference compound] | 2300 µg/mL (≈ 6.41 mM) | – | – | – |

Source: patent publication US4497822A, “Insecticidal N-benzoyl-N'-phenyl-N'-(R-thio)ureas” (Shell Oil Company, priority 1982, dated 1985)
